# Source: article PMC5041162, “Chemistry and Molecular Dynamics Simulations of Heme b-HemQ and Coproheme-HemQ” (Biochemistry, 2016)
# Legend:
# [1] = biological target: apo-myoglobin; settings: cited from earlier work
# [2] = system: SaHemQ; format: binding, Staphylococcus aureus
# Procedure: Differential scanning calorimetry (DSC) measurements were performed using a VP-capillary DSC microcalorimeter from Microcal with a cell volume of 137 μL. The measurements were controlled by the VP-viewer program, and the instrument was equipped with an autosampler for 96-well plates. Samples were analyzed using a programmed heating scan rate of 60 °C h^–1 over a temperature range from 20 to 100 °C, and the cell pressure was approximately 60 psi (4.136 bar). DSC thermograms were corrected for buffer baseline and protein concentration. Apo-, heme b-, or coproheme-LmHemQ and SaHemQ (5 μM each) in 50 mM phosphate buffer (pH 7.0) were used for each measurement. For data analysis and conversion, the Microcal origin software was used. Heat capacity (Cp) was expressed in kilocalories per mole per kelvin. Data points were fitted to non-two-state equilibrium unfolding models by the Lavenberg–Marquardt (LM) nonlinear least-squares method.
# [3] = biological target: T1, apo-SaHemQ (HemQ from Staphylococcus aureus) (Staphylococcus aureus, UniProt A6QEP0); format: binding; settings: pH 7
# T1 construct: poly-His (C); made in house; host or cells: Escherichia coli BL21(DE3)pLysS
# Procedure: (§1) Time-resolved binding of coproheme to apo-HemQ was monitored using a stopped-flow apparatus equipped with a diode array detector (model SX-18MV, Applied Photophysics), in the conventional mode. […] The fastest mixing time was 1 ms. […]. Experiments were conducted in 50 mM phosphate buffer (pH 7.0). Reactions were simulated, and rates were estimated using Pro-Kineticists software (Applied Photophysics). The apparent second-order rate constants, kon, were obtained from the slope of a plot of kobs versus coproheme concentration.
# [4] = biological target: T2, apo-LmHemQ (HemQ from Listeria monocytogenes) (Listeria monocytogenes serovar 1/2a, UniProt Q8Y5F1); format: binding; settings: pH 7
# T2 construct: made in house; host or cells: Escherichia coli
# Procedure: as §1
# [5] = system: apo-SaHemQ and apo-LmHemQ; format: binding, S. aureus and L. monocytogenes
# Procedure: as §1
# T1 sequence (A6QEP0 whole entry): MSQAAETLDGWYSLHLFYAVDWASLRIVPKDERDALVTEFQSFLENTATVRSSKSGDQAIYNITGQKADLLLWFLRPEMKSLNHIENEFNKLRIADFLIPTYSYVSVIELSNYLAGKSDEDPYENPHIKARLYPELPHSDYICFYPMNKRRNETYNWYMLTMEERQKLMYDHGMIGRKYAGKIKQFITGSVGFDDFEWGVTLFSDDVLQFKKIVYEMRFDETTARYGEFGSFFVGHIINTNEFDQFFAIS
# T2 sequence (Q8Y5F1 whole entry): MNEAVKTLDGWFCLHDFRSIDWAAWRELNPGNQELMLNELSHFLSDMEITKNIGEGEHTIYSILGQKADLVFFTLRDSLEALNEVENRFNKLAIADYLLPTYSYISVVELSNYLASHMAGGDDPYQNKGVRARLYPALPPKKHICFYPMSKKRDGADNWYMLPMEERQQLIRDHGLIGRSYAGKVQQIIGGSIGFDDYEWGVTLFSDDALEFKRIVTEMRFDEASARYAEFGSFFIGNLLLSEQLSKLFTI
Compound,KD of the prosthetic group to apo-myoglobin [1],increase of Tm when coproheme binds [2] [°C],"kon, binding of coproheme to apo-HemQ, first (fast) phase [3]","kon, binding of coproheme to apo-HemQ, second (slow) phase [3]","kon, binding of coproheme to apo-HemQ, first (fast) phase [4]","kon, binding of coproheme to apo-HemQ, second (slow) phase [4]","rate of coproheme binding, fast phase [5]"
C=CC1=C(C)c2cc3[n-]c(cc4nc(cc5[n-]c(cc1n2)c(C)c5CCC(=O)O)C(CCC(=O)O)=C4C)c(C)c3C=C.[Fe+3] [hemin],low nanomolar range,–,–,–,–,–,–
"CC1=C(CCC(=O)O)c2cc3[n-]c(cc4nc(cc5[n-]c(cc1n2)c(CCC(=O)O)c5C)C(C)=C4CCC(=O)O)c(CCC(=O)O)c3C.[Fe] [coproheme, iron coproporphyrin III]",–,14,~2.0 × 10^8 M^–1 s^–1,3.7 × 10^6 M^–1 s^–1,~1.5 × 10^8 M^–1 s^–1,2.2 × 10^6 M^–1 s^–1,1.5–2 × 10^8 M^–1 s^–1
